Changes are numbered by the printed parent chain.
Experiments:
(MOUSE)NAT2*1 = molecular target: T1, (MOUSE)NAT2*1 (Mus musculus, UniProt P50295); test: Substrate specific N-acetylation profile; format: biochemical; conditions: substrate 500 μM, relative to substrate with highest specific activity (100%), mean of 3 ± SD
T1 construct: made in house
T1 sequence (P50295 1-290): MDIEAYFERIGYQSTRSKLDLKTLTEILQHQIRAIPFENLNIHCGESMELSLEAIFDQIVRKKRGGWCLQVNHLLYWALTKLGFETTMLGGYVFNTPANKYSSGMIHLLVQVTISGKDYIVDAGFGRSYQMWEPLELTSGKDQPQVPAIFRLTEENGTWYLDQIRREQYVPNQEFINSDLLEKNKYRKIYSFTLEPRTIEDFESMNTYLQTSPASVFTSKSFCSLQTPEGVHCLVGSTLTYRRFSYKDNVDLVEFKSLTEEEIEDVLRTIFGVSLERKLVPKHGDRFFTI

(MOUSE)NAT2_F125S = molecular target: T2, (MOUSE)NAT2_F125S (Mus musculus, UniProt P50295, F125S); test: Substrate specific N-acetylation profile; format: biochemical; conditions: for % specific activity values: (MOUSE)NAT2 F125S, substrate 500 μM, relative to substrate with highest specific activity (100%), mean of 3 ± SD
T2 construct: His tag (only implied by Ni-NTA purification) (cleaved yes); made in house; host or cells: E. coli Rosetta(DE3)pLysS
T2 sequence (P50295 1-290 F125S): T1 sequence (P50295 1-290) with F125S

(MOUSE)NAT2_R127G = molecular target: T3, (MOUSE)NAT2_R127G (Mus musculus, UniProt P50295, R127G); test: Substrate specific N-acetylation profile; format: biochemical; conditions: (MOUSE)NAT2 R127G; substrate 500 μM; relative to substrate with highest specific activity (100%); mean of 3 ± SD
T3 construct: made in house
T3 sequence (P50295 1-290 R127G): T1 sequence (P50295 1-290) with R127G

(MOUSE)NAT2_R127L = molecular target: T4, (MOUSE)NAT2_R127L (Mus musculus, UniProt P50295, R127L); test: Substrate specific N-acetylation profile; format: biochemical; conditions: (MOUSE)NAT2 R127L; substrate 500 μM; relative to substrate with highest specific activity (100%); mean of 3 ± SD
T4 construct: made in house
T4 sequence (P50295 1-290 R127L): T1 sequence (P50295 1-290) with R127L

(MOUSE)NAT1*1 = molecular target: T5, (MOUSE)NAT1*1 (Mus musculus, UniProt P50294); test: Substrate specific N-acetylation profile; format: biochemical; conditions: for % specific activity values: substrate 500 μM, relative to substrate with highest specific activity (100%), mean of 3 ± SD
T5 construct: The open reading frame of (MOUSE)Nat1*1 [32] was subcloned; hexa-His (N, cleaved yes); made in house; host or cells: Escherichia coli BL21(DE3)CodonPlus-RIL
T5 sequence (P50294 1-290): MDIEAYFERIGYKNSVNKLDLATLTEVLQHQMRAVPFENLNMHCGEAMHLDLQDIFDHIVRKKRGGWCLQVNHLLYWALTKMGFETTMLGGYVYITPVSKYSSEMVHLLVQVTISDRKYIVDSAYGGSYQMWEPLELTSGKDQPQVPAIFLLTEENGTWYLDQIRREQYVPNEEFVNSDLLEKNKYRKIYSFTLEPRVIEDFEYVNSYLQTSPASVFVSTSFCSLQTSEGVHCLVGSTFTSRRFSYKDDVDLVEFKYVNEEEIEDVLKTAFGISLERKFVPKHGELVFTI

(HUMAN)NAT1*4 = test system: (HUMAN)NAT1*4; parameters: method as in PMID 15627487, PMID 18280460; conditions: substrate 500 μM, relative to substrate with highest specific activity (100%), mean of 3 ± SD, ref [8], [22]; cited from earlier work
(MESAU)NAT2*1 = test system: (MESAU)NAT2*1; parameters: method as in PMID 15627487, PMID 18280460; conditions: substrate 500 μM, relative to substrate with highest specific activity (100%), mean of 3 ± SD, ref [8], [22]; cited from earlier work
(HUMAN)NAT2*4 = molecular target: T6, (HUMAN)NAT2*4 (Homo sapiens, UniProt P11245); parameters: method as in PMID 15627487, PMID 18280460; conditions: substrate 500 μM, relative to substrate with highest specific activity (100%), mean of 3 ± SD, ref [8], [22]; cited from earlier work
T6 construct: made in house
T6 sequence (P11245 1-290): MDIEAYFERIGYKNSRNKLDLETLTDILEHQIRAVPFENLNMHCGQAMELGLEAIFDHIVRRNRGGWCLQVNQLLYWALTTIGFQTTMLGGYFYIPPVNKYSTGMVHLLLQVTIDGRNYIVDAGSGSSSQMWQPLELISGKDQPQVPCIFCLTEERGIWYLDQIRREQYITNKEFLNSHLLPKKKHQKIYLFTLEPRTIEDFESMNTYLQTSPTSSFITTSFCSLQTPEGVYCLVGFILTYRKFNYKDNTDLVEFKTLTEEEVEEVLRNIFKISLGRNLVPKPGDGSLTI

[1] = ref [56]–[61]; cited from earlier work

| Structure (SMILES) | % specific activity values ((MOUSE)NAT2*1) | % specific activity values ((MOUSE)NAT2_F125S) | % specific activity values ((MOUSE)NAT2_R127G) | % specific activity values ((MOUSE)NAT2_R127L) | % specific activity values ((MOUSE)NAT1*1) | % specific activity values ((HUMAN)NAT1*4) | % specific activity values ((MESAU)NAT2*1) | % specific activity values ((HUMAN)NAT2*4) | pKa(H) (NH3^+) [1] | Maximal specific activity ((MOUSE)NAT2_F125S; (MOUSE)NAT2_F125S, best substrate, 500 μM) | Maximal specific activity ((MOUSE)NAT1*1; best substrate, 500 μM) | pKa(H) (NH2^+-NH3^+) [1] | pKa(H) (NH-NH3^+) [1] | pKa(H) (pyridine) [1] | pKa(H) (sulfonamide) [1] |
| --- | --- | --- | --- | --- | --- | --- | --- | --- | --- | --- | --- | --- | --- | --- | --- |
| Nc1ccc(Br)cc1 [4BA, 4-bromoaniline] | 52 ± 2% | 47 ± 2% | 70 ± 1% | 81 ± 11% | 28 ± 6% | 50 ± 1% | 72 ± 1% | 72 ± 1% | 3.4 (NH3^+) |  |  |  |  |  |  |
| Nc1ccc(Cl)cc1 [4CA, 4-chloroaniline] | 46 ± 4% | 56 ± 2% | 54 ± 3% | 70 ± 1% | 18 ± 3% | 36 ± 2% | 61 ± 2% | 71 ± 3% | 3.8 (NH3^+) |  |  |  |  |  |  |
| Nc1ccc(I)cc1 [4IA, 4-iodoaniline] | 72 ± 3% | 69 ± 2% | 97 ± 1% | 74 ± 8% | 28 ± 3% | 63 ± 1% | 81 ± 1% | 65 ± 2% | 3.8 (NH3^+) |  |  |  |  |  |  |
| COc1ccc(N)cc1 [ANS, 4-methoxyaniline] | 88 ± 6% | 100 ± 3% | 97 ± 4% | 77 ± 10% | 48 ± 1% | 56 ± 2% | 89 ± 1% | 9 ± 2% | 5.2 (NH3^+) | 25 µM/s/mg |  |  |  |  |  |
| CCCCCCOc1ccc(N)cc1 [HOA, 4-hexyloxyaniline] | 23 ± 2% | 47 ± 1% | 59 ± 3% | 80 ± 8% | 3 ± 4% | 12 ± 4% | 35 ± 1% | 51 ± 2% | 5.1 (NH3^+) |  |  |  |  |  |  |
| NNC(=O)c1ccncc1 [INH, isoniazid] | 2 ± 2% | 38 ± 2% | 63 ± 10% | 76 ± 14% | 100 ± 6% | 0 ± 2% | 1 ± 1% | 62 ± 2% |  |  | 104 µM/s/mg | 2.0 | 3.9 | 10.8 |  |
| Nc1ccc(Oc2ccccc2)cc1 [POA, 4-phenoxyaniline] | 20 ± 2% | 62 ± 2% | 67 ± 1% | 61 ± 2% | 6 ± 1% | 17 ± 7% | 22 ± 1% | 62 ± 11% | 4.36 (NH3^+) |  |  |  |  |  |  |
| Cc1cc(C)nc(NS(=O)(=O)c2ccc(N)cc2)n1 [SMZ, sulfamethazine] | 4 ± 1% | 1 ± 1% | 19 ± 2% | 3 ± 1% | 88 ± 6% | 1 ± 1% | 1 ± 1% | 46 ± 1% | 2.4 |  |  |  |  |  | 7.4 |
